Test results: patent US20250025454A1 (priority 2021, published 2025)

Tests used:
SARS-CoV-2 [1] = conditions: 35 compounds tested
SARS-CoV-2/WA1 = assay type: cell-based; conditions: Severe acute respiratory syndrome coronavirus 2, HeLa-ACE2
SARS-CoV-2 [2] = assay: microbe, parasite or virus in culture; conditions: Severe acute respiratory syndrome coronavirus 2, HeLa-ACE2, 24 h
in vitro = conditions: human, EC50, compound toxicity in the context of infection, total cell numbers per well; average±sem of 5 independent experiments

| Compound | activity in the HeLa-ACE2 cell-based SARS-CoV-2 assay (SARS-CoV-2 [1]) | IC50 (SARS-CoV-2/WA1) | EC50 (SARS-CoV-2 [2]) | EC50 (in vitro) |
| --- | --- | --- | --- | --- |
| Cc1c2c(nn1C)CSCc1cc(n(C)n1)CSc1cc(c3ccccc3c1)OCCCc1c(C(=O)O)n(C)c3c-2c(Cl)ccc13 [AZD-5991] | demonstrated activity |  |  |  |
| COc1cc(Cl)cc(C(C)Nc2cc(N3CCNCC3)ccc2S(C)(=O)=O)c1OC.Cl (stereo not shown) [PRX-07034] | demonstrated activity |  |  |  |
| CNCc1ccc(-c2cc(-c3nc(-c4ccc(S(=O)(=O)C(C)C)cc4)cnc3N)on2)cc1 [berzosertib, reference compound] | demonstrated activity | 110 nM | 114 nM |  |
| COc1ccc(C[C@H](N)C(=O)N[C@H]2[C@@H](O)[C@H](n3cnc4c(N(C)C)ncnc43)O[C@@H]2CO)cc1 [puromycin] |  |  |  | 547 ± 27 nM |
| Nc1ncnc2c1nc(Cl)n2[C@@H]1O[C@@H]2COP(=O)(O)O[C@H]2[C@H]1O [tocladesine] | demonstrated activity |  |  |  |
